Earlier results in patent publication US10201174B2, “Process for reducing contaminating Michael acceptor levels in oxycodone and other compositions” (Controlled Chemicals, Inc., priority 2005, dated 2019).

Conditions: thiol group ionisation, aqueous

SMILES	pKSH / pK of the thiol-containing compound
O=C([O-])CS.[Na+] [sodium thioglycolate]	10.3
O=C(O)c1cc(S)ccc1[N+](=O)[O-] [5-mercapto-2-nitro-benzoic acid]	4.8
